Series [1] is described as follows: Serum cannabinoid concentrations after 1 and 2 weeks of twice daily dosing (relative steady state). The class given is in vivo, dog (beagle). The conditions noted are these: for concentration at 6 h: male, beagle, dog, 2 mg/kg, 2 mg/kg twice daily, six hours after the morning dose. An excerpt:
Six intact male beagles all 2 years of age weighing between 18.6 and 22.2 kilograms body weight were housed at the Baker Institute for Animal Health and all procedures were approved by the Cornell University Institutional Animal Care and Use Committee (Protocol 2019-0001). All dogs underwent the fasted treatment trial for a two-week period and were then allowed 2 weeks of washout before beginning the fed stage of the trial which included ¼ of a 13 ounce can of a wet food (PURINA® Pro Plan Savory Chicken and Rice Formula, Nestle Purina, St. Louis, MO) at the time of dosing. Twenty-four hour pharmacokinetic analysis of serum cannabinoid levels was performed on day 1 after a single dose in the fed or fasted state. Then, twice daily dosing of treatment oil at both 7 am and 7 pm was performed on the following days for two weeks, and serum cannabinoids were measured. Prior to the study all dogs had blood drawn for a complete blood count and serum chemistry and again at the end of each phase of the 2 week study. Complete blood counts (white blood cells [WBC], hematocrit, hemoglobin, red blood cells [RBC], neutrophils, lymphocytes, platelets, monocytes, eosinophils, basophils) and serum biochemistry analyses (sodium, potassium, chloride, magnesium, calcium, phosphorus, albumin, total protein, globulin, urea nitrogen, creatinine, alkaline phosphatase [ALP], alanine aminotransferase [ALT], aspartate amino transferase [AST], cholesterol, total bilirubin, glucose and gamma glutamyl transferase [GGT]) were performed at the Cornell University Diagnostic Laboratory. For the fasted and fed portions of the 24 hour pharmacokinetic analysis study the dogs were administered 2 mg/kg body weight of an equal mix of 30 mg/mL CBG and 30 mg/mL CBGA from a hemp extract in a sesame oil base which was tested again at the end of the study showing virtually the same analytical profile. Two milliliters of blood was drawn via jugular venipuncture for all 6 dogs prior to the initial dose (0 hours) and then again at 0.5, 1, 2, 4, 8, 12 and 24 hours. Prior to enrollment all dogs involved in the study were deemed healthy based on physical examination. Behavioral observations were performed 2 hours after morning dosing for each phase of the trial. Behavioral observations were performed on day 1, day 3, day 7, and day 14. Physical and behavioral examinations were performed to assess for adverse events including diarrhea, vomiting, lethargy, somnolence, ataxia, or abnormal behavior within the colony. Due to the potential for CBG/CBGA to affect heart rate, dogs were assessed manually for resting heart rates for 30 seconds and extrapolated to relative beats per minute after initial dosing at time points 0, 1, 2, 4, 12, 24 and 48 hours and again at day 7 and day 14 after morning dosing for both the fed and fasted arms of the study. Serum was also obtained on day 7 and day 14 six hours after the morning dose for further serum cannabinoid measurement to establish relative steady state serum concentrations.
Analysis was performed using an exploratory (fit-for-purpose) method for fast measurement of thirteen cannabinoids and their metabolites at the Toxicology Research Laboratory, University of Illinois at Chicago. The reference standards for CBD and CBDA were obtained from Restek Corporation (Bellefonte, PA); all other reference and internal standards including CBG and CBGA were obtained from Cerilliant Corporation (Round Rock, TX). The concentrations of cannabinoids (CBD, CBDA, 7-COOH Cannabidiol (7-COOH-CBD), THC, THCA, cannabinol (CBN), cannabichromene (CBC), CBG, and CBGA) and their metabolites (7-OH-CBD, 7-COOH-CBD, COOH-THC, and COOH-THC-Glu) in dog sera were determined using high performance liquid chromatography with tandem mass spectrometry (LC-MS/MS) (Nexera X2 and LCMS 8050, Shimadzu Corp., Kyoto, Japan). […]

Series [2] is described as follows: Physical and behavioral examinations for adverse events. The class given is in vivo. The conditions noted are these: healthy dogs, oral 2 mg/kg twice daily for 2 weeks.
Description: All dogs underwent the fasted treatment trial for a two-week period and were then allowed 2 weeks of washout before beginning the fed stage of the trial which included ¼ of a 13 ounce can of a wet food (PURINA® Pro Plan Savory Chicken and Rice Formula, Nestle Purina, St. Louis, MO) at the time of dosing. […] Prior to the study all dogs had blood drawn for a complete blood count and serum chemistry and again at the end of each phase of the 2 week study. Complete blood counts (white blood cells [WBC], hematocrit, hemoglobin, red blood cells [RBC], neutrophils, lymphocytes, platelets, monocytes, eosinophils, basophils) and serum biochemistry analyses (sodium, potassium, chloride, magnesium, calcium, phosphorus, albumin, total protein, globulin, urea nitrogen, creatinine, alkaline phosphatase [ALP], alanine aminotransferase [ALT], aspartate amino transferase [AST], cholesterol, total bilirubin, glucose and gamma glutamyl transferase [GGT]) were performed at the Cornell University Diagnostic Laboratory. […] Due to the potential for CBG/CBGA to affect heart rate, dogs were assessed manually for resting heart rates for 30 seconds and extrapolated to relative beats per minute after initial dosing at time points 0, 1, 2, 4, 12, 24 and 48 hours and again at day 7 and day 14 after morning dosing for both the fed and fasted arms of the study.
The nature of series [3]: Manual resting heart rate monitoring. Type of series: in vivo, dog (beagle). The conditions noted are these: initial dosing and two-week period of treatment. An excerpt:
Six intact male beagles all 2 years of age weighing between 18.6 and 22.2 kilograms body weight were housed at the Baker Institute for Animal Health and all procedures were approved by the Cornell University Institutional Animal Care and Use Committee (Protocol 2019-0001). All dogs underwent the fasted treatment trial for a two-week period and were then allowed 2 weeks of washout before beginning the fed stage of the trial which included ¼ of a 13 ounce can of a wet food (PURINA® Pro Plan Savory Chicken and Rice Formula, Nestle Purina, St. Louis, MO) at the time of dosing. Twenty-four hour pharmacokinetic analysis of serum cannabinoid levels was performed on day 1 after a single dose in the fed or fasted state. Then, twice daily dosing of treatment oil at both 7 am and 7 pm was performed on the following days for two weeks, and serum cannabinoids were measured. Prior to the study all dogs had blood drawn for a complete blood count and serum chemistry and again at the end of each phase of the 2 week study. […] Due to the potential for CBG/CBGA to affect heart rate, dogs were assessed manually for resting heart rates for 30 seconds and extrapolated to relative beats per minute after initial dosing at time points 0, 1, 2, 4, 12, 24 and 48 hours and again at day 7 and day 14 after morning dosing for both the fed and fasted arms of the study. […]

Molecules are shown by their SMILES.

On to `CCCCCc1cc(O)c(C/C=C(\C)CCC=C(C)C)c(O)c1` [CBG, cannabigerol], for which the concentration at 6 h in series [1] (serum, oral, week one, fasted) is 5 ± 3.5 ng/mL; in series [1] (serum, oral, week one, fed), 12.7 ± 12.3 ng/mL; in series [1] (serum, oral, week two, fasted), 6.1 ± 6 ng/mL; in series [1] (serum, oral, week two, fed), 9.6 ± 8.4 ng/mL. Moreover, in series [2], the “Short-term safety (serum biochemistry, blood count, physical exam and heart rate monitoring)” value is “appear to be safe”.
Regarding `CCCCCc1cc(O)c(C/C=C(\C)CCC=C(C)C)c(O)c1C(=O)O` [CBGA, cannabigerolic acid], in series [3], the “Bradycardia upon oral absorption” value was “does not induce bradycardia”. Besides, the concentration at 6 h is 437 ± 414 ng/mL in series [1] (in vivo, week one, fasted); 564 ± 574 ng/mL in series [1] (in vivo, week one, fed); 260 ± 300 ng/mL in series [1] (in vivo, week two, fasted); 223 ± 197 ng/mL in series [1] (in vivo, week two, fed). In addition, in series [1] (oral dosing over a 2-week period), the “absorption and retention, fold higher than what can be achieved with CBG” value is recorded as around 10 fold. Also, in series [2], the “Short-term safety (serum biochemistry, blood count, physical exam and heart rate monitoring)” value is “appear to be safe”.

These data come from patent US20240269212A1, “HEMP EXTRACT FOR TREATMENT OF PAIN, CANCER AND EPILEPSY IN ANIMALS” (Portland Technology Holdings LLC., priority 2021, published 2024).
